We go through one compound from patent publication US11408885B2, “Compositions and multiplex assays for characterizing active proteases and their inhibitors” (Massachusetts Institute of Technology, priority 2017, dated 2022).

pIC50: −log10 of the molar value.

For one test, the target named is T1, MMP2 (Homo sapiens, UniProt P08253).
T1 sequence (P08253 110-660): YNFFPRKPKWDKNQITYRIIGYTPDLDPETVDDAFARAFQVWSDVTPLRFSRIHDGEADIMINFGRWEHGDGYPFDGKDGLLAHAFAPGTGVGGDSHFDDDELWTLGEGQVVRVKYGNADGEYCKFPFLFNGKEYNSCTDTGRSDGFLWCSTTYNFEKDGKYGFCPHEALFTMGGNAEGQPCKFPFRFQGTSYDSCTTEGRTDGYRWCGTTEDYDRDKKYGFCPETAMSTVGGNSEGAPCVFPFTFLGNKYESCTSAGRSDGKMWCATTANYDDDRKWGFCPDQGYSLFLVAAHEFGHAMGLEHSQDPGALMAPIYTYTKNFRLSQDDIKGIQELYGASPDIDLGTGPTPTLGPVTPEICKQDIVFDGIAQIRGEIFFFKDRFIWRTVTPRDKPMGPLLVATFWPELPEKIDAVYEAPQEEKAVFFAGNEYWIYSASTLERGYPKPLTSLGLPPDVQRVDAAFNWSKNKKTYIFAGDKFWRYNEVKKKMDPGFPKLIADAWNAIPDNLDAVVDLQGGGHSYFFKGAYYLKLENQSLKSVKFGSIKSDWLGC
The test is described as follows: FRET substrate cleavage by recombinant MMP, inhibition by activity-based probe. Details: purchased Peprotech. As to conditions: FRET substrate PEPDAB011 10 μM, read-out: IC50, inhibition of substrate cleavage of active MMP. Format: biochemical. The text has this:
(§1) The binding of an activity-based probe, e.g., HxBP-Bt, to the active site of an MMP (as shown in FIG. 1A) would effectively reduce (or inhibit) the ability of such MMP to cleave its substrate. […] This correlation should also provide an IC50 value to measure the sensitivity/potency of the MAMBI system to bind, and thereby quantify, active MMPs. […] Fluorescence resonance energy transfer (FRET) technique is used to determine if a substrate is cleaved by pre-labeling two parts of a substrate molecule with a donor chromophore and an acceptor chromophore, respectively, and measuring the energy transfer efficiency from the donor to the acceptor chromophore to determine if two fluorophores are within a certain distance of each other, i.e. the substrate is intact and uncleaved. Here, HxBP-Bt bound MMP samples were mixed with chromophore-labeled substrate peptides in 384-well OptiPlates® at 37° C. using timelapse fluorimetry in the Spectromax® M3 and M2e fluorimeters (Molecular Devices). The fluorescence was monitored by plate reader. In general, readings measured fluorescence every 20 minutes for roughly five hours and the reported rate of increase in fluorescence was calculated from fitting a linear portion of this increase including at least 4 data points and subtracting the average increase in background, protease-free conditions. […] Reaction velocities were calculated from linear reaction periods from raw fluorescence value time courses. […] Relative rates of FRET substrate cleavage among samples with the addition of HxBP-Bt were quantified and compared with the rates without HxBP-Bt. Activities of recombinant MMPs 1, 7, 8, 12 and 13, in the presence or absence of HxBP-Bt probe, were characterized with […]008 (Dabcyl-[…]); MMPs 2 and 9 with […]011 (Dabcyl-[…]) and MMPs 3 and 10 with […]052 (Dabcyl-[…]). […] These IC50 values were used to estimate binding off-rates in the computational model. IC50 of the inhibitor was calculated by fitting the resulting dose-dependent data with the PRISM software (GraphPad, USA)

Test [1] concerns proteases in peritoneal fluid of control donors and endometriosis patients. Nature of the test: FRET substrate cleavage in clarified peritoneal fluid. Format: biochemical, human. Conditions: peritoneal fluids of six control donors and six endometriosis patients; 500 nM or 1500 nM HxBP-Bt. The text has this:
Clarified peritoneal fluid from patients with endometriosis was compared to that from a control population with regards to the active MMP compositions and quantities. Peritoneal fluid is a mixture of cell debris, leukocytes, and thousands of soluble proteins including over 100 proteases and protease inhibitors that is contained within the pelvic cavity and interacts with endometriotic lesions (Amon, et al, PLoS ONE, 5(6) (2010)).
All laparoscopy patients provided informed consent in accordance with a protocol approved by the Partners Human Research Committee and the Massachusetts Institute of Technology Committee on the Use of Humans as Experimental Subjects. Enrollment was limited to pre-menopausal women with regular cycles (26-32 days) and excluded individuals who had received hormonal treatment within three months of surgery. Moderate/Severe (Stage III/IV) endometriosis was diagnosed according to the revised criteria of the American Society for Reproductive Medicine 8. Peritoneal fluid was aspirated from the rectouterine pouch immediately following trocar insertion and prior to peritoneal lavage or surgical manipulation. Upon collection, specimens were immediately placed on wet ice and clarified within 15 min. by centrifugation for 10 min. at 1000 rcf. Clarified aspirates were transported to the laboratory on ice, aliquoted, and stored at −80° C. until analysis.

The target of the next test is MMP13 (Homo sapiens, UniProt P45452). The test is described as follows: FRET substrate cleavage by recombinant MMP, inhibition by activity-based probe. As to conditions: FRET substrate PEPDAB008 10 μM, read-out: IC50, inhibition of substrate cleavage of active MMP. Format: biochemical.
Excerpt: as §1

The next test addresses MMP8 (Homo sapiens, UniProt P22894). Described as above. It is filed as biochemical. As to conditions: FRET substrate PEPDAB008 10 μM, read-out: IC50, inhibition of substrate cleavage of active MMP.
Excerpt: as §1

A further test deals with MMP10 (Homo sapiens, UniProt P09238). The description is as above. It is filed as biochemical. Conditions: FRET substrate PEPDAB052 10 μM, read-out: IC50, inhibition of substrate cleavage of active MMP.
MMP10, sequence (P09238 99-476): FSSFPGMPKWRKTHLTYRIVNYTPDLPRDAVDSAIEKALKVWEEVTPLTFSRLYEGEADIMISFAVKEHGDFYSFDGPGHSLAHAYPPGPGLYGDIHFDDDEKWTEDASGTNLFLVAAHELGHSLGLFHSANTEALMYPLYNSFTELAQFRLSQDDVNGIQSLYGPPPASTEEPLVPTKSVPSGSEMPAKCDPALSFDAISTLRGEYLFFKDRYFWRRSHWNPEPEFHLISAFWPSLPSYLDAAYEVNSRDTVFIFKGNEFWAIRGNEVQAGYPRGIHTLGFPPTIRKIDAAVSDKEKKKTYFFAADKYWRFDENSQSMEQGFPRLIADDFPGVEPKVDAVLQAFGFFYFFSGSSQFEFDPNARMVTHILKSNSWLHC
Excerpt: as §1

Another test concerns the target MMP12 (Homo sapiens, UniProt P39900). Described as above. Format: biochemical. Details: The recombinant catalytic domains of human MMPs 7 and 9 were purchased from Enzo Life Sciences, and of MMP 12 from Anaspec; purchased Anaspec. As to conditions: FRET substrate PEPDAB008 10 μM, read-out: IC50, inhibition of substrate cleavage of active MMP. An excerpt:
The binding of an activity-based probe, e.g., HxBP-Bt, to the active site of an MMP (as shown in FIG. 1A) would effectively reduce (or inhibit) the ability of such MMP to cleave its substrate. […] This correlation should also provide an IC50 value to measure the sensitivity/potency of the MAMBI system to bind, and thereby quantify, active MMPs. […] Fluorescence resonance energy transfer (FRET) technique is used to determine if a substrate is cleaved by pre-labeling two parts of a substrate molecule with a donor chromophore and an acceptor chromophore, respectively, and measuring the energy transfer efficiency from the donor to the acceptor chromophore to determine if two fluorophores are within a certain distance of each other, i.e. the substrate is intact and uncleaved. […] The fluorescence was monitored by plate reader. In general, readings measured fluorescence every 20 minutes for roughly five hours and the reported rate of increase in fluorescence was calculated from fitting a linear portion of this increase including at least 4 data points and subtracting the average increase in background, protease-free conditions. […] Reaction velocities were calculated from linear reaction periods from raw fluorescence value time courses. […] Relative rates of FRET substrate cleavage among samples with the addition of HxBP-Bt were quantified and compared with the rates without HxBP-Bt. […]

MMP8, sequence (P22894 101-467, species assumed): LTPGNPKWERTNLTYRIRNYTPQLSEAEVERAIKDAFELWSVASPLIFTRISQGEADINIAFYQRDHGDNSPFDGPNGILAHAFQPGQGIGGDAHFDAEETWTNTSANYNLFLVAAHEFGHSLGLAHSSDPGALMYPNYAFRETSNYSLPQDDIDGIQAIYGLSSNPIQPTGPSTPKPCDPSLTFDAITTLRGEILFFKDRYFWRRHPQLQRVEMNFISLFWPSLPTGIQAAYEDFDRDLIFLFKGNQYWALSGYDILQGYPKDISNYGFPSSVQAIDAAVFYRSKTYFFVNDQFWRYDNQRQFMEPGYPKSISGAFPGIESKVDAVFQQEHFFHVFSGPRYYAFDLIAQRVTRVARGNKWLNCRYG
MMP12, sequence (P39900 106-263 limits assumed): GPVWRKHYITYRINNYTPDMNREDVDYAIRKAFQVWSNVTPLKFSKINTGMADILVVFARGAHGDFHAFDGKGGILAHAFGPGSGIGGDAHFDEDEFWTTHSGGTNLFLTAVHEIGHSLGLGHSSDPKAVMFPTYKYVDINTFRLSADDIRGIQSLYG

One may read the pIC50 as −log10 of the IC50, conventionally taken in molar units. Regarding `CC(C)CC(C(=O)NC(Cc1ccc(C(=O)c2ccccc2)cc1)C(=O)NCCOCCOCCOCC(=O)NCC(C)(C)SSC(C)(C)CNC(=O)CCCCC1SCC2NC(=O)NC21)C(O)C(=O)NO` (stereo not drawn) [HxBP-Bt, biotin-tagged hydroxamate benzophenone (HxBP-Bt) probe], the pIC50 is 8.48 on MMP2; 8.64 on MMP13; 8.62 on MMP8; 7.54 at MMP10; 8.40 on MMP12. Also, the “effect on substrate cleavage” value in test [1] is recorded as “inhibited substrate cleavage in all samples”.
